The source made the active and inactive calls. The calls are words filed in the database; no cut-off is given here.
Legend:
Interstitial collagenase = target: T1, Interstitial collagenase (Homo sapiens, UniProt P03956); assay: Inhibition of MMP1 in human U2OS cells by peptide microarray-based fluorescence assay; format: cell-based
T1 sequence (P03956 whole entry): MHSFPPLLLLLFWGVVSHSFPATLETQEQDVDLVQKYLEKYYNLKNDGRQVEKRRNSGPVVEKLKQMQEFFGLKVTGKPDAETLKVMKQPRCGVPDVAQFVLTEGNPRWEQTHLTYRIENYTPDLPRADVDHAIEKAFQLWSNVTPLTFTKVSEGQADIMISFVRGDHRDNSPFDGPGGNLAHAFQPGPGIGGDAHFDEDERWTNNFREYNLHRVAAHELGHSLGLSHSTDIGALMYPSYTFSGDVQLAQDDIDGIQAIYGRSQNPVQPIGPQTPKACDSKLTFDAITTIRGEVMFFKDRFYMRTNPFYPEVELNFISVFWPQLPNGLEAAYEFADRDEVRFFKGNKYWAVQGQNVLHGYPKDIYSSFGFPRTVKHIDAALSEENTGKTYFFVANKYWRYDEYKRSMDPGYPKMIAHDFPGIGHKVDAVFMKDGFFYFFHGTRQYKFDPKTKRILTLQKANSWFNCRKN

[1] = Toxicity in human MDA-MB-231 cells assessed as cell viability at 2.5 umol/L incubated for 24 hrs by MTT assay relative to control; format: cell-based; conditions: dose 2.5 µmol/L, read-out: Activity
[2] = target: T2, Matrilysin (Homo sapiens) (UniProt P09237); assay: Inhibition of MMP7 in human U2OS cells at 1 umol/L by peptide microarray-based fluorescence assay; format: cell-based; conditions: dose 1.0 µmol/L
T2 sequence (whole entry): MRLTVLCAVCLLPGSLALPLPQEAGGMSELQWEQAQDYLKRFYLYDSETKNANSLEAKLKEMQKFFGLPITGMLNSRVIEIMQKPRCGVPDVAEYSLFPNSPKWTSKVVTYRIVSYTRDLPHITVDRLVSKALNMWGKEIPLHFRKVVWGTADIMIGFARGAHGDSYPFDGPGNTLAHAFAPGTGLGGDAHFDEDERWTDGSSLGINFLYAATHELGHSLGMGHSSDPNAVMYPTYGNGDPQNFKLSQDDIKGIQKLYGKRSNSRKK

U2OS [3] = assay: Antitumor activity against human U2OS cells xenografted in NOD/SCID mouse assessed as inhibition of tumor growth at 18 ug, iv dosed once every 2 days for 6 days successively relative to control; format: functional; conditions: dose 18 µg, time 6 day
Stromelysin-1 [4] = target: T3, Stromelysin-1 (Homo sapiens, UniProt P08254); assay: Inhibition of MMP3 in human U2OS cells by peptide microarray-based fluorescence assay; format: cell-based
Target sequence in this assay (P08254 whole entry): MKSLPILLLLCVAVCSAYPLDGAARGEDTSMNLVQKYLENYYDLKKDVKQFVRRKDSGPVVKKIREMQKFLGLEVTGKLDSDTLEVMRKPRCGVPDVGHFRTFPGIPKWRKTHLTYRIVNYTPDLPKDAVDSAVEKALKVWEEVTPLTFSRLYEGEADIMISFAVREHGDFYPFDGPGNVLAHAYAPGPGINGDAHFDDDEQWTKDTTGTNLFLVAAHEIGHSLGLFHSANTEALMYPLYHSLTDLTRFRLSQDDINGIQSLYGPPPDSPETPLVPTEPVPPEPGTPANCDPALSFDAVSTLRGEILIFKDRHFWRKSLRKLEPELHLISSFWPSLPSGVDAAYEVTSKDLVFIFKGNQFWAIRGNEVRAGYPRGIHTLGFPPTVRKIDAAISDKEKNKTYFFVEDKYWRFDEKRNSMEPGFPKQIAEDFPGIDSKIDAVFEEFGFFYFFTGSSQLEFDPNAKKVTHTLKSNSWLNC

Stromelysin-1 [5] = target: T3, Stromelysin-1; assay: Inhibition of MMP3 in human U2OS cells at 5 umol/L by peptide microarray-based fluorescence assay; format: cell-based; conditions: dose 5.0 µmol/L
Target sequence in this assay (P08254 100-477 limits assumed): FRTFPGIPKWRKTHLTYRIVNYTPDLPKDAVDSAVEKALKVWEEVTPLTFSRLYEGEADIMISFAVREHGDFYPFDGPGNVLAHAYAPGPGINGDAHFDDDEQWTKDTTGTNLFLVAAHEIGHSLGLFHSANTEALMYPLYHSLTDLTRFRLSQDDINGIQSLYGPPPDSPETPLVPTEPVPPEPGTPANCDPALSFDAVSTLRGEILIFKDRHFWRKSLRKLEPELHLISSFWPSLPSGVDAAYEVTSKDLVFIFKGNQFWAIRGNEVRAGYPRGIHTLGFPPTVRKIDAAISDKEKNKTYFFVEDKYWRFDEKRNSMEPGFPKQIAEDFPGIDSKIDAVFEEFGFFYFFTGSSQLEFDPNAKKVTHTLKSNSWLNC

U2OS [6] = assay: Antitumor activity against human U2OS cells xenografted in NOD/SCID mouse assessed as inhibition of tumor growth at 100 mg/kg, po dosed once every 2 days for 2 weeks relative to control; format: functional; conditions: 1008 h, time 6 weeks, read-out: TGI
U2OS [7] = assay: Inhibition of cell migration of human U2OS cells at 2.5 umol/L incubated for 24 hrs by would healing assay; format: functional, cell-based; conditions: dose 2.5 µmol/L
[8] = target: T4, Interstitial collagenase (Homo sapiens) (UniProt P03956); assay: Inhibition of MMP1 in human U2OS cells at 5 umol/L by peptide microarray-based fluorescence assay; format: cell-based; conditions: dose 5.0 µmol/L
T4 sequence (whole entry): T1 sequence (P03956 whole entry)

U2OS [9] = assay: Antitumor activity against human U2OS cells xenografted in NOD/SCID mouse assessed as time duration with 100% survival with at 18 ug, iv dosed once every 2 days for 6 days successively relative to control; format: functional; conditions: dose 18 µg, time 6 day
[10] = Toxicity in Kunming mouse assessed as induction of adverse effect or tissue damage in major organs measured after 14 days; conditions: in vivo, 336 h, time 14 day
[11] = Toxicity in human HEK293T cells assessed as cell viability at 2.5 umol/L incubated for 24 hrs by MTT assay relative to control; format: cell-based, HEK-293T; conditions: dose 2.5 µmol/L, read-out: Activity
[12] = target: T5, 72 kDa type IV collagenase (Homo sapiens, UniProt P08253); assay: Inhibition of MMP2 in human U2OS cells at 1 umol/L by peptide microarray-based fluorescence assay; format: cell-based; conditions: dose 1.0 µmol/L
Target sequence in this assay (P08253 110-660 limits assumed): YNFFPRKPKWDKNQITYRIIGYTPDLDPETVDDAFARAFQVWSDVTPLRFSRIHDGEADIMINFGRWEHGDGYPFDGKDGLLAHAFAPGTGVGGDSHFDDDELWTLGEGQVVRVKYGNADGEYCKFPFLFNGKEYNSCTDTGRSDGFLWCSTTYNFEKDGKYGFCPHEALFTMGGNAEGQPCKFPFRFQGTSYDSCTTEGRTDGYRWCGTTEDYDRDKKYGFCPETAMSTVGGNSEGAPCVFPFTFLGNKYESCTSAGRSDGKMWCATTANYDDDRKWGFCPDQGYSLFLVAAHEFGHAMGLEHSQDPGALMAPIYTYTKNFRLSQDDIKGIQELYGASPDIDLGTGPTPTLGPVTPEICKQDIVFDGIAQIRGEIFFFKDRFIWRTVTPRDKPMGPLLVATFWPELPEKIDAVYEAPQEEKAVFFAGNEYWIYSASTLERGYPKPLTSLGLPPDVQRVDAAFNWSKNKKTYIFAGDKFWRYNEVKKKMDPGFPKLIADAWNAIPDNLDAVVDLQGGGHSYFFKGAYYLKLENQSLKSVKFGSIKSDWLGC

Collagenase 3 [13] = target: T6, Collagenase 3 (Homo sapiens, UniProt P45452); assay: Inhibition of MMP13 in human U2OS cells at 5 umol/L by peptide microarray-based fluorescence assay; format: cell-based; conditions: dose 5.0 µmol/L
Collagenase 3 [14] = target: T6, Collagenase 3; assay: Inhibition of MMP13 in human U2OS cells at 1 umol/L by peptide microarray-based fluorescence assay; format: cell-based; conditions: dose 1.0 µmol/L
[15] = Toxicity in human U2OS cells assessed as cell viability at 2.5 umol/L incubated for 24 hrs by MTT assay relative to control; format: cell-based; conditions: dose 2.5 µmol/L, read-out: Activity
[16] = target: T7, Matrix metalloproteinase-9 (Homo sapiens, UniProt P14780); assay: Inhibition of MMP9 in human U2OS cells at 5 umol/L by peptide microarray-based fluorescence assay; format: cell-based; conditions: dose 5.0 µmol/L
[17] = target: T2, Matrilysin (Homo sapiens); assay: Inhibition of MMP7 in human U2OS cells at 5 umol/L by peptide microarray-based fluorescence assay; format: cell-based; conditions: dose 5.0 µmol/L
[18] = Toxicity in human HCT-116 cells assessed as cell viability at 2.5 umol/L incubated for 24 hrs by MTT assay relative to control; format: cell-based; conditions: dose 2.5 µmol/L, read-out: Activity
[19] = Toxicity in human HL7702 cells assessed as cell viability at 2.5 umol/L incubated for 24 hrs by MTT assay relative to control; format: cell-based, L02; conditions: dose 2.5 µmol/L, read-out: Activity
[20] = Toxicity in Kunming mouse assessed as effect on body weight changes measured after 14 days; conditions: in vivo, 336 h, time 14 day
U2OS [21] = assay: Antitumor activity against human U2OS cells xenografted in NOD/SCID mouse assessed as inhibition of growth of both primary and metastatic tumors at 18 ug, iv dosed once every 2 days for 6 days successively relative to control; format: functional, organism-based; conditions: dose 18.0 µg, time 6.0 day
Matrilysin = target: T8, Matrilysin (Homo sapiens, UniProt P09237); assay: Inhibition of MMP7 in human U2OS cells by peptide microarray-based fluorescence assay; format: cell-based
T8 sequence (P09237 whole entry): T2 sequence (whole entry)

[22] = target: T7, Matrix metalloproteinase-9; assay: Inhibition of MMP9 in human U2OS cells by peptide microarray-based fluorescence assay; format: cell-based
[23] = Toxicity in human MCF7 cells assessed as cell viability at 2.5 umol/L incubated for 24 hrs by MTT assay relative to control; format: cell-based; conditions: dose 2.5 µmol/L, read-out: Activity
[24] = Toxicity in Kunming mouse assessed as effect on blood components measured after 14 days; conditions: in vivo, 336 h, time 14 day
[25] = target: T5, 72 kDa type IV collagenase; assay: Inhibition of MMP2 in human U2OS cells at 5 umol/L by peptide microarray-based fluorescence assay; format: cell-based; conditions: dose 5.0 µmol/L
Target sequence in this assay (P08253 110-660 limits assumed): as above

[26] = target: T5, 72 kDa type IV collagenase; assay: Inhibition of MMP2 in human U2OS cells by peptide microarray-based fluorescence assay; format: cell-based
Target sequence in this assay (P08253 whole entry): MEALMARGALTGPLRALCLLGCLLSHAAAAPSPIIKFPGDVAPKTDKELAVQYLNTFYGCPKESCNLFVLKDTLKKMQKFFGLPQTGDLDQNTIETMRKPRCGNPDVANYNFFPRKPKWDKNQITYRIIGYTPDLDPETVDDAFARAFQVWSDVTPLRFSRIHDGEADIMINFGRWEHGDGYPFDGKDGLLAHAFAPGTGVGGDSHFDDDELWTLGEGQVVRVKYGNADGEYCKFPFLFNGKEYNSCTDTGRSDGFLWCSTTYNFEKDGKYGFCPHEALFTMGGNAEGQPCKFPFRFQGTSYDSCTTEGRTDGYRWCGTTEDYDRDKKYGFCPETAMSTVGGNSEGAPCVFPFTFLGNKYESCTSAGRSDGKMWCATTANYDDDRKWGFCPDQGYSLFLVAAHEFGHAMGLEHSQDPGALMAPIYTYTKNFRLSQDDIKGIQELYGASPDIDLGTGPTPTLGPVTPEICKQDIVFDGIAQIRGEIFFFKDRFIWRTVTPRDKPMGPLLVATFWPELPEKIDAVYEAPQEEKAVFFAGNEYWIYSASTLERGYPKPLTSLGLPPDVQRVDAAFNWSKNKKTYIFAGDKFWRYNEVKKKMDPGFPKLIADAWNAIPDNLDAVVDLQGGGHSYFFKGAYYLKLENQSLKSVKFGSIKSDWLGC

Collagenase 3 [27] = target: T6, Collagenase 3; assay: Inhibition of MMP13 in human U2OS cells by peptide microarray-based fluorescence assay; format: cell-based
[28] = target: T7, Matrix metalloproteinase-9; assay: Inhibition of MMP9 in human U2OS cells at 1 umol/L by peptide microarray-based fluorescence assay; format: cell-based; conditions: dose 1.0 µmol/L
U2OS [29] = assay: Antitumor activity against human U2OS cells xenografted in NOD/SCID mouse assessed as inhibition of distant organ metastasis at 18 ug, iv dosed once every 2 days for 6 days successively relative to control; format: functional, organism-based; conditions: dose 18.0 µg, time 6.0 day
[30] = target: T4, Interstitial collagenase (Homo sapiens); assay: Inhibition of MMP1 in human U2OS cells at 1 umol/L by peptide microarray-based fluorescence assay; format: cell-based; conditions: dose 1.0 µmol/L
Stromelysin-1 [31] = target: T3, Stromelysin-1; assay: Inhibition of MMP3 in human U2OS cells at 1 umol/L by peptide microarray-based fluorescence assay; format: cell-based; conditions: dose 1.0 µmol/L
Target sequence in this assay (P08254 100-477 limits assumed): as the sequence (P08254 100-477 limits assumed) above

[32] = Toxicity in human NCM460 cells assessed as cell viability at 2.5 umol/L incubated for 24 hrs by MTT assay relative to control; format: cell-based; conditions: dose 2.5 µmol/L, read-out: Activity
U2OS [33] = assay: Antitumor activity against human U2OS cells xenografted in NOD/SCID mouse assessed as inhibition of distant organ metastasis at 34 ug, iv dosed once every 2 days for 6 days successively relative to control; format: functional, organism-based; conditions: dose 34.0 µg, time 6.0 day
U2OS [34] = assay: Antitumor activity against human U2OS cells xenografted in NOD/SCID mouse assessed as time duration with 100% survival with at 34 ug, iv dosed once every 2 days for 6 days successively relative to control; format: functional; conditions: dose 34 µg, time 6 day
U2OS [35] = assay: Antitumor activity against human U2OS cells xenografted in NOD/SCID mouse assessed as inhibition of growth of both primary and metastatic tumors at 34 ug, iv dosed once every 2 days for 6 days successively relative to control; format: functional, organism-based; conditions: dose 34.0 µg, time 6.0 day
U2OS [36] = assay: Antitumor activity against human U2OS cells xenografted in NOD/SCID mouse assessed as inhibition of tumor growth at 34 ug, iv dosed once every 2 days for 6 days successively relative to control; format: functional; conditions: dose 34 µg, time 6 day
U2OS [37] = assay: Antitumor activity against human U2OS cells xenografted in NOD/SCID mouse assessed as time duration with 100% survival with at 30 ug, iv dosed once every 2 days for 6 days successively relative to control; format: functional; conditions: dose 30 µg, time 6 day
U2OS [38] = assay: Antitumor activity against human U2OS cells xenografted in NOD/SCID mouse assessed as inhibition of tumor growth at 30 ug, iv dosed once every 2 days for 6 days successively relative to control; format: functional; conditions: dose 30 µg, time 6 day
U2OS [39] = assay: Antitumor activity against human U2OS cells xenografted in NOD/SCID mouse assessed as inhibition of growth of both primary and metastatic tumors at 30 ug, iv dosed once every 2 days for 6 days successively relative to control; format: functional, organism-based; conditions: dose 30.0 µg, time 6.0 day
U2OS [40] = assay: Antitumor activity against human U2OS cells xenografted in NOD/SCID mouse assessed as inhibition of distant organ metastasis at 30 ug, iv dosed once every 2 days for 6 days successively relative to control; format: functional, organism-based; conditions: dose 30.0 µg

T7 sequence (P14780 whole entry): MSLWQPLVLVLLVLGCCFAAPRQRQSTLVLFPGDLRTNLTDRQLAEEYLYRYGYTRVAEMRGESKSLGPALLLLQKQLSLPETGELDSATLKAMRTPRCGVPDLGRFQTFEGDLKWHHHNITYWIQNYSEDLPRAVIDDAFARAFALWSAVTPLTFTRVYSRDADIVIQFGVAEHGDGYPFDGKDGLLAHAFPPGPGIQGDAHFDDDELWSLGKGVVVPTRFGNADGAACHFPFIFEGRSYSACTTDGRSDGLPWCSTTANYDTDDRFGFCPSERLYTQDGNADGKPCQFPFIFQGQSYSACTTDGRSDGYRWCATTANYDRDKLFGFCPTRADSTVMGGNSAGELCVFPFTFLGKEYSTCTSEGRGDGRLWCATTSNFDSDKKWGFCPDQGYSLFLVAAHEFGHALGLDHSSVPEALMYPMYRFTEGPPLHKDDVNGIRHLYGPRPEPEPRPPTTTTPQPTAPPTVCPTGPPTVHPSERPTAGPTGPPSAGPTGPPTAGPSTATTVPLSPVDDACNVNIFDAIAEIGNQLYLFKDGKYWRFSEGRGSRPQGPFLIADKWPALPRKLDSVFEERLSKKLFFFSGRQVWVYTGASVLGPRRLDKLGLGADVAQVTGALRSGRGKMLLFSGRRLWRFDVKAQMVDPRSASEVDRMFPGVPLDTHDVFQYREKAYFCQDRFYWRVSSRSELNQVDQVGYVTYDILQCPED

| SMILES | viability at 24 h, 2.5 µM [1] | inhibition (Stromelysin-1 [5]) | inhibition (U2OS [7]) | inhibition [8] | Activity [10] | viability at 24 h, 2.5 µM [11] | inhibition (Collagenase 3 [13]) | inhibition (Collagenase 3 [14]) | viability at 24 h, 2.5 µM [15] | inhibition [16] | inhibition [17] | viability at 24 h, 2.5 µM [18] | viability at 24 h, 2.5 µM [19] | Activity [20] | IC50 [22] | viability at 24 h, 2.5 µM [23] | Activity [24] | inhibition [25] | IC50 (Collagenase 3 [27]) | viability at 24 h, 2.5 µM [32] | other results |
| --- | --- | --- | --- | --- | --- | --- | --- | --- | --- | --- | --- | --- | --- | --- | --- | --- | --- | --- | --- | --- | --- |
| O=C(/C=C/c1ccc(O)cc1)c1ccc(O)cc1O [ISOLIQUIRITIGENIN] | > 90% | > 50% | Active | > 50% | Non-Toxic | > 90% | > 50% | Active | > 90% | > 50% | > 50% | > 90% | > 90% | Non-Toxic | 10 nM | > 90% | Non-Toxic | > 50% | 14 nM | > 90% | IC50 (Interstitial collagenase): 16 nM; inhibition [2]: Active; TGI (U2OS [3]): 80%; IC50 (Stromelysin-1 [4]): 81 nM; inhibition in vivo at 100 mg/kg (U2OS [6]): 72%; Survival (U2OS [9]): 70 days; inhibition [12]: Active; inhibition (U2OS [21]): Active; IC50 (Matrilysin): 8 nM; IC50 [26]: 10 nM; inhibition [28]: Active; inhibition (U2OS [29]): Active; inhibition [30]: Active; inhibition (Stromelysin-1 [31]): Active |
| O=C1C[C@@H](c2ccc(O)cc2)Oc2cc(O)ccc21 |  | > 50% |  | > 50% |  |  | > 50% |  |  | > 50% | > 50% |  |  |  |  |  |  | > 50% |  |  |  |
| COc1cc(C2Oc3ccc([C@H]4Oc5cc(O)cc(O)c5C(=O)[C@@H]4O)cc3OC2CO)ccc1O (some centres undefined) | > 90% |  | Active |  | Non-Toxic | > 90% | > 50% | Active | > 90% | > 50% |  | > 90% | > 90% | Non-Toxic |  | > 90% | Non-Toxic |  | 250 nM | > 90% | inhibition (U2OS [33]): Active; Survival (U2OS [34]): 43 days; inhibition (U2OS [35]): Active; TGI (U2OS [36]): 60% |
| O=c1c2cc(O)c(O)cc2oc2cc(O)c([C@@H]3O[C@H](CO)[C@@H](O)[C@H](O)[C@H]3O)c(O)c12 [MANGIFERIN] | > 90% |  | Active | > 50% | Non-Toxic | > 90% |  |  | > 90% | > 50% |  | > 90% | > 90% | Non-Toxic | 250 nM | > 90% | Non-Toxic |  |  | > 90% | Survival (U2OS [37]): 41 days; TGI (U2OS [38]): 35%; inhibition (U2OS [39]): Active; inhibition (U2OS [40]): Active; inhibition [28]: Active; inhibition [30]: Active |

— ChEMBL document CHEMBL5126637, “Discovery of Phenolic Matrix Metalloproteinase Inhibitors by Peptide Microarray for Osteosarcoma Treatment” (J Nat Prod, 2022)
